Source: EP0263903A1, “Method for preparing specific inhibitors of virus-specified proteases” (priority 1986, dated 1988)
Like-named read-outs stand apart in the source and are kept apart here. Residues, ends and D or L forms follow the SMILES beside them. *: point of attachment. Cbz = O=C(OCc1ccccc1)*; CH2Cl = ClC*

How the values were obtained:
rhinovirus type 1A [1] = format: cell-based, human rhinovirus type 1A
poliovirus type 2 [2] = format: cell-based, human poliomyelitisvirus type 2
rhinovirus type 1A [3] = experiment: Plaque inhibition assay; format: cell-based, Human rhinovirus type 1A
poliovirus type 2 [4] = format: cell-based
chymotrypsin = conditions: inhibitor concentration of 600 µg/mL; cited from earlier work
subtilisin BPNʹ = conditions: series of peptide chloromethyl ketones; cited from earlier work

Compound: CC(=O)[C@H](CC(C)C)NC(=O)[C@H](C)NC(=O)CNC(=O)[C@H](Cc1ccccc1)NC(=O)OC(C)(C)C [Boc-Phe-Gly-Ala-LeuCH₃]
- activity in the viral cleavage assay (rhinovirus type 1A [1]): failed to show activity
- activity in the viral cleavage assay (poliovirus type 2 [2]): failed to show activity

Compound: COC(=O)CCC(=O)N[C@@H](Cc1ccccc1)C(=O)NCC(=O)N[C@@H](CC(C)C)C(=O)N[C@@H](CC(C)C)C(C)=O [MeOSuc-Phe-Gly-Leu-LeuCH₃]
- activity in the viral cleavage assay (poliovirus type 2 [2]; 50 µg/mL): active

Compound: CC(=O)[C@H](CC(C)C)NC(=O)[C@H](C)NC(=O)CNC(=O)[C@H](Cc1ccccc1)NC(=O)OCc1ccccc1 [Z-Phe-Gly-Ala-LeuCH₃]
- plaque reduction (rhinovirus type 1A [3]; 50 µg/mL in agar overlays, compared to control plates): > 90%
- plaque reduction (poliovirus type 2 [4]): > 90%
- No cytotoxicity observed at concentrations up to (human HeLa-O cells): > 1 mg/mL
- activity in the viral cleavage assay (poliovirus type 2 [2]; 50 µg/mL): active

Compound: CC(C)C[C@H](NC(=O)[C@H](CC(C)C)NC(=O)CNC(=O)[C@H](Cc1ccccc1)NC(=O)OCc1ccccc1)C(=O)CCl [Z-Phe-Gly-Leu-LeuCH₂Cl] (Cbz-FGLL-CH2Cl)
- Antiviral activity, as scored by 90% plaque reduction, noted at (rhinovirus type 1A [3]; HeLa cells): 1 µg/mL
- cytotoxicity first detected at a concentration of (human HeLa-O cells): about 15 µg/mL

Compound: Ac-Leu-Leu-PheCH₃
- inhibition of chymotrypsin (chymotrypsin): no inhibition was observed

Compound: acetyl-L-phenylalanyl-L-glycyl-L-alanyl-L-leucyl chloromethyl ketone (Ac-FGAL-CH2Cl; SMILES CC(=O)N[C@@H](Cc1ccccc1)C(=O)NCC(=O)N[C@@H](C)C(=O)N[C@@H](CC(C)C)C(=O)CCl) [Ac-Phe-Gly-Ala-LeuCH₂Cl]
- inhibition of subtilisin BPNʹ (rate ranking among the compounds tested) (subtilisin BPNʹ): fastest inhibitor
